From patent US11358931B2, “Selective androgen receptor modulators (SARMs) and uses thereof” (priority 2007, dated 2022)

Legend:
[1] = molecular target: T1, hGR (Homo sapiens, UniProt P04150); assay: Co-transfection assay, other nuclear receptors: hGR; type: cell-based
T1 construct: expressed in transfected cells
T1 sequence (P04150 1-777): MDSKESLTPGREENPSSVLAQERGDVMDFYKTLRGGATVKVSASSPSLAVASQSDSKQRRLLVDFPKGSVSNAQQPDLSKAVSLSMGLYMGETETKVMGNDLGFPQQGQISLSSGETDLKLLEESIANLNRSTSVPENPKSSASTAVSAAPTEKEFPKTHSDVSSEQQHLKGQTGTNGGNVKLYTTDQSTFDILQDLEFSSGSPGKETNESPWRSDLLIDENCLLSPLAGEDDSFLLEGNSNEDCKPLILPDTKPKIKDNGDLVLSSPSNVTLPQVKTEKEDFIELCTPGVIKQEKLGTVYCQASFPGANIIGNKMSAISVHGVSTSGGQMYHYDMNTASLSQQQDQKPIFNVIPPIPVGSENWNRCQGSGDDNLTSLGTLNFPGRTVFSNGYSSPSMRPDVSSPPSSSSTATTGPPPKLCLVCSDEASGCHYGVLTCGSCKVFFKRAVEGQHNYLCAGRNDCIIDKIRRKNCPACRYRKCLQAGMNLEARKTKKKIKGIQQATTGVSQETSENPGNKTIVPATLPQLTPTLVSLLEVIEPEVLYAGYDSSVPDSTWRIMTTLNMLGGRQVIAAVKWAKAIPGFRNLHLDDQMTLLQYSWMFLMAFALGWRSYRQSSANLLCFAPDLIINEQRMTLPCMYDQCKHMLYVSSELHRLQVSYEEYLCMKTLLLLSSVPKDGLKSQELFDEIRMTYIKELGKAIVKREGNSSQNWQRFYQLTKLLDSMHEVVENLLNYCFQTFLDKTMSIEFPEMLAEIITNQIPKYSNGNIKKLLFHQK
Excerpt: (§1) An exemplary co-transfection assay is the luciferase reporter assay (Evans, Science 240: 889-895 (1988), Berger et al., J Steroid Biochem Mol Biol 41: 733-738 (1992)) can be used to establish the ability of a compound of formulae I, II or III to activate (agonist activity) or repress (antagonist activity) the ability of the human androgen receptor (hAR) to induce gene expression. A human cell line containing endogenously expressed hAR (e.g., MDA-MB-453 cells, derived from a human mammary carcinoma, American Tissue Type Culture Collection [ATCC] HTB 131) can be transfected with an androgen responsive luciferase reporter plasmid to measure the level of cross-reactivity of the compound on other nuclear receptors (such as the glucocorticoid receptor (GR), estrogen receptor (ER), mineralocorticoid receptor (MR), progesterone receptor (PR), retinoid receptor (RAR), retinoid X receptor (RXR), peroxisome proliferator activating receptors alpha (PPARα), gamma (PPARγ) and delta (PPARδ), liver X receptor (LXR), farnesyl X receptor (FXR) and the pregnane X receptor (PXR)). In the assay, luciferase reporter plasmids containing the cDNA for firefly luciferase (LUC) under the control of a conditional promoter containing hormone response elements recognized by the appropriate nuclear receptor are co-transfected into cells with the nuclear receptor expression plasmid. […]

[2] = molecular target: T2, hPR-B (Homo sapiens, UniProt P06401); assay: Co-transfection assay, other nuclear receptors: hPR-B; type: cell-based
T2 construct: expressed in transfected cells
T2 sequence (P06401 1-933): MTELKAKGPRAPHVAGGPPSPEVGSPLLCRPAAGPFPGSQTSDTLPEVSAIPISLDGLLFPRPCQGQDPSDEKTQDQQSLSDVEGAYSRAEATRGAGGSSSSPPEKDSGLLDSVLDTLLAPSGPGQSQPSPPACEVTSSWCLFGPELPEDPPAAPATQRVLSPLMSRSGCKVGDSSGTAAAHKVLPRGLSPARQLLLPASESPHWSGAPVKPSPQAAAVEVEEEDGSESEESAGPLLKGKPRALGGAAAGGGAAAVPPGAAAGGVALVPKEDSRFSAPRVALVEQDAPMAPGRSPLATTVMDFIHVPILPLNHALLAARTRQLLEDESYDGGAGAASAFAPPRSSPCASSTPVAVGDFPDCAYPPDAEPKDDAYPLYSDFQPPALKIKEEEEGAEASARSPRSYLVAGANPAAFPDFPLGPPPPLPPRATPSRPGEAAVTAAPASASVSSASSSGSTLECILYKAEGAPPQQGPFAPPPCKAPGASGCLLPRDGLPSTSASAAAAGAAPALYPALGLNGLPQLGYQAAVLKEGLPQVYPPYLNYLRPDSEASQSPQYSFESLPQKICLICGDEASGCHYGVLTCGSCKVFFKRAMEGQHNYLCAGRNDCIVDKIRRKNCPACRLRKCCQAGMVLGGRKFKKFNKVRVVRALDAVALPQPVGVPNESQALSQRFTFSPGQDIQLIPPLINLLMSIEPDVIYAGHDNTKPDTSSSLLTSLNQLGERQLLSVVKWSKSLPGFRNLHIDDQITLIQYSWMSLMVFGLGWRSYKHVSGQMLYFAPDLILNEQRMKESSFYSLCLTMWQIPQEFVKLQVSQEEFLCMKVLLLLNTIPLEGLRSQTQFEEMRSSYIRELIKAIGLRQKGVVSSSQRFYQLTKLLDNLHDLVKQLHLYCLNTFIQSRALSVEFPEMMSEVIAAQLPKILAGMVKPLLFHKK
Excerpt: as §1

## N#Cc1ccc(N2CCC[C@@H]2[C@@H](O)C(F)(F)F)cc1C(F)(F)F [Compound 102, R,R-4-(2-(1-Hydroxyl-2,2,2-trifluoroethyl)-pyrrolidinyl)-2-trifluoromethyl-benzonitrile]
[1]
  IC50: 1600 nM
[1]; dexamethasone-induced activation
  antagonism of dexamethasone-induced activation of hGR (efficacy): 60%
[2]
  IC50: 280 nM
[2]; progesterone-induced activation
  antagonism of progesterone-induced activation of hPR-B (efficacy): 74%
